Activity calls are given as the source filed them. No cut-off for these calls is given here.
How the values were obtained:
[1] = biological target: Serum amyloid P-component (Homo sapiens) (UniProt P02743); test: Inhibition of calcium dependent [125I]serum amyloid P-component (unknown origin) binding to immobilized Neisseria meningitidis at 200 nM incubated for 2 hrs by fluorescence/electron microscopy relative to control
[2] = biological target: Serum amyloid P-component (Homo sapiens) (UniProt P02743); test: Inhibition of calcium dependent [125I]serum amyloid P-component (unknown origin) binding to immobilized Neisseria meningitidis at 2 uM incubated for 2 hrs by fluorescence/electron microscopy relative to control
[3] = biological target: Serum amyloid P-component (Homo sapiens) (UniProt P02743); test: Inhibition of calcium dependent [125I]serum amyloid P-component (unknown origin) binding to immobilized influenza virus A/Shanghai/24/90 at 2 uM incubated for 2 hrs by fluorescence/electron microscopy relative to control
[4] = biological target: Serum amyloid P-component (Homo sapiens) (UniProt P02743); test: Inhibition of calcium dependent [125I]serum amyloid P-component (unknown origin) binding to immobilized influenza virus A/Shanghai/24/90 at 2 mM incubated for 2 hrs by fluorescence/electron microscopy relative to control
[5] = biological target: Serum amyloid P-component (Homo sapiens) (UniProt P02743); test: Inhibition of calcium dependent [125I]serum amyloid P-component (unknown origin) binding to immobilized Neisseria meningitidis at 20 uM incubated for 2 hrs by fluorescence/electron microscopy relative to control
[6] = biological target: Serum amyloid P-component (Homo sapiens) (UniProt P02743); test: Inhibition of calcium dependent [125I]serum amyloid P-component (unknown origin) binding to immobilized Neisseria meningitidis at 2 mM incubated for 2 hrs by fluorescence/electron microscopy relative to control
[7] = biological target: Serum amyloid P-component (Homo sapiens) (UniProt P02743); test: Inhibition of calcium dependent [125I]serum amyloid P-component (unknown origin) binding to immobilized influenza virus A/Shanghai/24/90 at 200 nM incubated for 2 hrs by fluorescence/electron microscopy relative to control
[8] = biological target: Serum amyloid P-component (Homo sapiens) (UniProt P02743); test: Inhibition of calcium dependent [125I]serum amyloid P-component (unknown origin) binding to immobilized chicken erythrocyte native long chromatin at 2 mM incubated for 2 hrs by gamma counting relative to control
[9] = biological target: Serum amyloid P-component (Homo sapiens) (UniProt P02743); test: Inhibition of calcium dependent [125I]serum amyloid P-component (unknown origin) binding to immobilized chicken erythrocyte native long chromatin at 2 uM incubated for 2 hrs by gamma counting relative to control
[10] = biological target: Serum amyloid P-component (Homo sapiens) (UniProt P02743); test: Inhibition of calcium dependent [125I]serum amyloid P-component (unknown origin) binding to immobilized chicken erythrocyte native long chromatin at 20 uM incubated for 2 hrs by gamma counting relative to control
[11] = biological target: Serum amyloid P-component (Homo sapiens) (UniProt P02743); test: Inhibition of calcium dependent [125I]serum amyloid P-component (unknown origin) binding to immobilized influenza virus A/Shanghai/24/90 at 200 uM incubated for 2 hrs by fluorescence/electron microscopy relative to control
[12] = biological target: Serum amyloid P-component (Homo sapiens) (UniProt P02743); test: Inhibition of calcium dependent [125I]serum amyloid P-component (unknown origin) binding to immobilized influenza virus A/Shanghai/24/90 at 20 uM incubated for 2 hrs by fluorescence/electron microscopy relative to control
[13] = biological target: Serum amyloid P-component (Homo sapiens) (UniProt P02743); test: Inhibition of calcium dependent [125I]serum amyloid P-component (unknown origin) binding to immobilized chicken erythrocyte native long chromatin at 200 uM incubated for 2 hrs by gamma counting relative to control
[14] = biological target: Serum amyloid P-component (Homo sapiens) (UniProt P02743); test: Inhibition of calcium dependent [125I]serum amyloid P-component (unknown origin) binding to immobilized Neisseria meningitidis at 200 uM incubated for 2 hrs by fluorescence/electron microscopy relative to control
[15] = biological target: Serum amyloid P-component (Homo sapiens) (UniProt P02743); test: Inhibition of calcium dependent [125I]serum amyloid P-component (unknown origin) binding to immobilized chicken erythrocyte native long chromatin at 200 nM incubated for 2 hrs by gamma counting relative to control
[16] = biological target: Serum amyloid P-component (Homo sapiens) (UniProt P02743); conditions: 10 mM
Description: Inhibition of calcium dependent [125I]serum amyloid P-component (unknown origin) binding to immobilized Neisseria meningitidis at 10 mM incubated for 2 hrs by fluorescence/electron microscopy relative to control

Homo sapiens [17] = test: Reduction of serum amyloid P-component in amyloidosis patient at 15 mg, sc bid for 2 months; format: functional
Homo sapiens [18] = test: Reduction of serum amyloid P-component in amyloidosis patient at 10 mg, sc bid for 3 months; format: functional
[19] = biological target: Serum amyloid P-component (Homo sapiens) (UniProt P02743); test: Inhibition of serum amyloid P-component (unknown origin) binding to immobilized amyloid beta 1 to 42 fibrils at 100 umol/L pre-incubated before calcium addition by surface plasma resonance
[20] = biological target: Serum amyloid P-component (Homo sapiens) (UniProt P02743); test: Inhibition of serum amyloid P-component (unknown origin) binding to immobilized amyloid beta 1 to 42 fibrils in presence of EDTA followed by re-exposure to SAP and calcium addition and re-exposure to compound at 50 umol/L by surface plasma resonance
[21] = biological target: Serum amyloid P-component (Homo sapiens) (UniProt P02743); test: Inhibition of serum amyloid P-component (unknown origin) binding to immobilized amyloid beta 1 to 42 fibrils at 500 umol/L in presence of calcium by surface plasma resonance

Chain of Serum amyloid P-component (Homo sapiens) (P02743 whole entry): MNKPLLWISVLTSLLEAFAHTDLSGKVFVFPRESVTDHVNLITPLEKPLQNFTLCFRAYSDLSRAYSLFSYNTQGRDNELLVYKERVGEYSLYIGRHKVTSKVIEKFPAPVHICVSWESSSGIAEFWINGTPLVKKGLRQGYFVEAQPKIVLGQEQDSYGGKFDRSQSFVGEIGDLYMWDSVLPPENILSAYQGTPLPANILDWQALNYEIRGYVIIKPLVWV

| Compound | inhibition [1] [%] | inhibition [2] [%] | inhibition [3] [%] | inhibition [4] [%] | inhibition [5] [%] | inhibition [6] [%] | inhibition [7] [%] | inhibition [8] [%] | inhibition [9] [%] | inhibition [10] [%] | inhibition [11] [%] | inhibition [12] [%] | inhibition [13] [%] | inhibition [14] [%] | inhibition [15] [%] | also measured |
| --- | --- | --- | --- | --- | --- | --- | --- | --- | --- | --- | --- | --- | --- | --- | --- | --- |
| O=C(O)[C@H]1CCCN1C(=O)Cc1ccc(CC(=O)N2CCC[C@@H]2C(=O)O)cc1 | 7 | 64 | 65 | 89 | 73 | 100 | 37 | 92 | 19 | 39 | 89 | 85 | 66 | 100 | 4 | – |
| COc1cccc(OCC(=O)N2CCC[C@@H]2C(=O)O)c1OCC(=O)N1CCC[C@@H]1C(=O)O | 19 | 74 | 52 | 89 | 92 | 100 | 16 | 100 | – | 75 | 77 | 62 | 96 | 93 | 11 | – |
| O=C(O)[C@H]1CCCN1C(=O)COc1cccc2c(OCC(=O)N3CCC[C@@H]3C(=O)O)cccc12 | 30 | 72 | 51 | 80 | 81 | 100 | 23 | 96 | 51 | 74 | 76 | 64 | 82 | 100 | 12 | – |
| C[N+](C)(C)CCOP(=O)([O-])O | 0 | 5 | 2 | 3 | 4 | 24 | 0 | 19 | 0 | 0 | 5 | 5 | 3 | 3 | 2 | – |
| O=C(O)[C@H]1CCCN1C(=O)[C@H]1CC[C@@H](C(=O)N2CCC[C@@H]2C(=O)O)CC1 | 31 | 73 | 76 | 92 | 93 | 100 | 0 | 100 | 35 | 67 | 89 | 83 | 94 | 100 | 1 | – |
| O=C(O)CN(CCN(CC(=O)O)CC(=O)O)CC(=O)O | – | – | – | – | – | – | – | – | – | – | – | – | – | – | – | inhibition [16]: 100% |
| O=C(O)[C@H]1CCCN1C(=O)CCCCC(=O)N1CCC[C@@H]1C(=O)O | 5 | 61 | 81 | 98 | 74 | 100 | 36 | 93 | 29 | 69 | 96 | 90 | 87 | 79 | 1 | inhibition (INH) (Homo sapiens [17]): 95%; inhibition (INH) (Homo sapiens [18]): 95% |
| C[C@H](CS)C(=O)N1CCC[C@@H]1C(=O)O | 3 | 42 | 30 | – | 50 | – | 12 | – | – | – | 51 | 40 | – | – | – | inhibition [19]: Active; inhibition [20]: Active; inhibition [21]: Active |
| O=C(O)[C@H]1CCCN1C(=O)Cc1cc(O)c(CC(=O)N2CCC[C@@H]2C(=O)O)cc1O | 1 | 76 | 57 | 89 | 95 | 100 | 24 | 97 | 45 | 78 | 89 | 80 | 88 | 100 | 0 | – |
| Cc1c(OCC(=O)N2CCC[C@@H]2C(=O)O)cccc1OCC(=O)N1CCC[C@@H]1C(=O)O | 1 | 64 | 65 | 85 | 93 | 100 | 24 | 98 | 22 | 65 | 81 | 81 | 95 | 100 | 0 | – |
| O=C(O)[C@H]1CCCN1C(=O)COc1ccccc1OCC(=O)N1CCC[C@@H]1C(=O)O | 18 | 77 | 68 | 94 | 87 | 100 | 44 | 96 | 34 | 77 | 93 | 88 | 89 | 100 | 7 | – |
| O=C(O)[C@H]1CCCN1C(=O)COc1ccc(OCC(=O)N2CCC[C@@H]2C(=O)O)cc1 | 0 | 65 | 77 | 87 | 74 | 100 | 3 | 91 | 36 | 56 | 84 | 82 | 75 | 65 | 1 | – |
| O=C(O)[C@H]1CCCN1C(=O)Cc1ccc(CC(=O)N2CCC[C@@H]2C(=O)O)c2ccccc12 | 13 | 69 | 64 | 98 | 89 | 100 | 4 | 100 | 35 | 77 | 94 | 95 | 96 | 100 | 15 | – |
| NCCOP(=O)(O)O | 7 | 18 | 8 | 69 | 32 | 95 | 1 | 94 | 9 | 36 | 51 | 42 | 59 | 41 | 3 | – |
| O=C(O)[C@H]1CCCN1C(=O)Cc1cccc(CC(=O)N2CCC[C@@H]2C(=O)O)c1 | 28 | 64 | 68 | 82 | 92 | 100 | 25 | 98 | 18 | 56 | 77 | 73 | 94 | 100 | 0 | – |
